Source: PubChem BioAssay (NCI)
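In this assay, cells in 96-well plates receive the compound at five concentrations for 48 hours. Endpoints are linearly interpolated between the surrounding concentrations. The concentration for 50% growth inhibition is given as GI50. The concentration for full growth arrest is given as TGI.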

How the values were obtained:
Test in all cases: growth of human tumour cells (NCI), 48 h
SK-MEL-5 melanoma = tested on: SK-MEL-5 melanoma
UACC-257 melanoma = tested on: UACC-257 melanoma
KM20L2 colon = tested on: KM20L2 colon
LXFL 529 NSCLC = tested on: LXFL 529 NSCLC
DMS 273 small cell lung = tested on: DMS 273 small cell lung
K-562 leukemia = tested on: K-562 leukemia
BT-549 breast = tested on: BT-549 breast
T-47D breast = tested on: T-47D breast
NCI/ADR-RES ovarian = tested on: NCI/ADR-RES ovarian
HS 578T breast = tested on: HS 578T breast

Structure (SMILES) | TGI (SK-MEL-5 melanoma) [µM] | TGI (UACC-257 melanoma) [µM] | TGI (KM20L2 colon) [µM] | TGI (LXFL 529 NSCLC) [µM] | TGI (DMS 273 small cell lung) [µM] | TGI (K-562 leukemia) [µM] | GI50 (SK-MEL-5 melanoma) [µM] | GI50 (UACC-257 melanoma) [µM] | GI50 (KM20L2 colon) [µM] | GI50 (LXFL 529 NSCLC) [µM] | GI50 (DMS 273 small cell lung) [µM] | GI50 (K-562 leukemia) [µM] | GI50 (BT-549 breast) [µM] | TGI (BT-549 breast) [µM] | GI50 (T-47D breast) [µM] | TGI (T-47D breast) [µM] | TGI (NCI/ADR-RES ovarian) [µM] | TGI (HS 578T breast) [µM]
CCOC(=O)c1ccc(N2C(=O)/C(=C\OC)c3ccccc3C2=O)cc1 | > 100 | > 100 | > 100 | 89.1 | > 100 | > 100 |  |  |  |  |  |  |  |  |  |  |  | 
N.N.NC(CS)C(=O)[O-].NC(CS)C(=O)[O-].[Pt+4] (stereo not drawn) | > 50 | > 50 | > 50 | > 50 | > 50 | > 50 | > 50 | > 50 | > 50 | > 50 | > 50 | > 50 |  |  |  |  |  | 
ON=C1CCC(c2ccccc2)CC1 (stereo not drawn) | > 100 | > 100 | > 100 | > 100 | > 100 | > 100 |  |  |  |  |  |  |  |  |  |  |  | 
c1ccc(N=C2c3ccccc3C3=NCCCN32)cc1 | 76.8 | > 100 | > 100 | > 100 | > 100 | > 100 |  |  |  |  |  |  |  |  |  |  |  | 
Cc1cc(C)nc(Nc2nc3ccc([N+](=O)[O-])cc3[nH]2)n1 | > 100 | > 100 | > 100 | > 100 | > 100 | > 100 |  |  |  |  |  |  |  |  |  |  |  | 
CC1=Cc2cc3[n-]c(cc4nc(cc5[n-]c(cc1n2)cc5C)C(C)=C4CCC(=O)O)c(CCC(=O)O)c3C.[Pd+2] | 19.6 | 29.3 | 44.3 | 11.1 | 32.7 | > 37 | 7.73 | 10.8 | 17.5 | 2.86 | 12 | 11 | 4.89 | > 100 | > 100 | > 100 |  | 
CCOC(CN=c1nc(N(C)C)ss1)OCC | > 100 | 40.7 | > 72.5 | 20.5 | > 67.9 | 11.8 |  |  |  |  |  |  |  | 55.5 |  | > 63.7 | > 100 | > 82.5
O=C(c1ccccc1)c1c(C(=O)c2ccccc2)c(-c2ccccc2)c2c(-c3ccccc3)sc(-c3ccccc3)c2c1-c1ccccc1 | > 100 | > 100 | > 100 | > 100 | > 100 | > 100 |  |  |  |  |  |  |  |  |  |  |  | 
O=C(O)c1cc2c(cn1)[nH]c1ccccc12 | > 100 | > 100 | > 100 | > 100 | > 100 | > 100 |  |  |  |  |  |  |  |  |  |  |  | 
CC(c1cccc2ccccc12)/[N+]([O-])=C/c1ccccc1 (stereo not drawn) | > 100 | > 100 | > 100 | > 100 | > 100 | > 100 |  |  |  |  |  |  |  |  |  |  |  | 
C=C1CC[C@@H]2C(C)(C)CCC[C@@]2(C)[C@@H]1Cc1cc(O)ccc1O | 19.7 | 5.78 | 32.8 | 6.68 | 19.4 | 16.7 |  |  |  |  |  |  |  |  |  |  |  | 
O=C1C(=O)N(c2ccc(Cl)c(Cl)c2)C(=O)C(=O)C1c1nc2ccccc2o1 |  | > 100 | > 100 | > 100 | > 100 | > 100 |  |  |  |  |  |  |  |  |  |  |  | 
COc1ccc2ccc([Se]c3ccc4ccc(OC)cc4c3)cc2c1 | > 100 | > 100 | > 100 | > 100 | > 100 | > 100 |  |  |  |  |  |  |  |  |  |  |  | 
O=S1(=O)C[C@@H](O)[C@H](O)CS1 | > 100 | > 100 | > 100 | > 100 | > 100 | > 100 |  |  |  |  |  |  |  |  |  |  |  | 
CN(c1ccccc1)C(c1ccccc1)C(O)c1ccccc1 (stereo not drawn) | 34.7 | 35.6 | 35.7 | 43.4 | 34 | 41.1 |  |  |  |  |  |  |  |  |  |  |  | 
CC1(C)OCC(CO)(Nc2nc(N3CC3)nc(N3CC3)n2)CO1 | 22.1 | 45.1 | 51.8 | > 100 | 25.8 | > 100 |  |  |  |  |  |  |  | 93.5 |  | 45 |  | 42.6
COC(=O)c1ccc(N=NN(C)CO)cc1 | > 100 | > 100 | > 100 | > 100 | > 100 | > 100 |  |  |  |  |  |  |  |  |  |  |  | 
CC(=O)Nc1ccc(C2[C@H]3C(=O)N(c4ccc(Cc5ccc(N6C(=O)[C@@H]7ON(c8ccccc8)C(c8ccc(NC(C)=O)cc8)[C@@H]7C6=O)cc5)cc4)C(=O)[C@H]3ON2c2ccccc2)cc1 (stereo partly drawn) | > 100 | > 100 | > 100 | > 100 | > 100 | > 100 |  |  |  |  |  |  |  |  |  |  |  | 
CC(=O)OCC1OC(n2c(=O)n(-c3ccccc3)c(=O)c3ccccc32)C(OC(C)=O)C(OC(C)=O)C1OC(C)=O (stereo not drawn) | > 100 | > 100 | > 100 | > 100 | > 100 | > 100 |  |  |  |  |  |  |  |  |  |  |  | 
COC(=O)C1=C(O)C(O)=C(C(=O)OC)C1 | > 100 | > 100 | > 100 | > 100 | > 100 | > 100 |  |  |  |  |  |  |  |  |  |  |  | 
COC(=O)c1nc(NC#N)[nH]c(=O)c1C | > 100 | > 100 | > 100 | > 100 | > 100 | > 100 |  |  |  |  |  |  |  |  |  |  |  | 
CS(=O)c1ccc(COP(N)(=O)N(CCCl)CCCl)cc1 (stereo not drawn) | > 100 | > 100 | > 100 | > 100 | > 100 | > 100 |  |  |  |  |  |  |  |  |  |  |  | 
COc1ccc(/C=C2/C[N+](C)(C)C/C(=C/c3ccc(OC)cc3)C2=O)cc1 | > 72 | > 100 | > 100 | > 100 | 51.3 | > 100 |  |  |  |  |  |  |  |  |  |  |  | 
O=C1OC2(c3ccccc3Oc3ccccc32)c2ccccc21 | > 100 | > 100 | > 100 | > 100 | > 100 | > 100 |  |  |  |  |  |  |  |  |  |  |  | 
[N-]=[N+]=NC1C(Br)C(=O)NC(=O)N1[C@H]1C[C@H](O)[C@@H](CO)O1 (stereo partly drawn) | > 100 | > 100 | > 100 | > 100 | > 100 | > 100 | 42.2 |  |  |  |  |  |  |  |  |  |  | 
